Measured values: paper PMC8537011 (Journal of Fungi, 2021)

Biological target: T1, PELa (P. expansum Lactonase) (Penicillium expansum, UniProt A0A0A2K035)
T1 construct: gene PEX2_072460
Test: UV absorbance at […] nm, initial rates, Michaelis-Menten fit
Assay type: biochemical
Details: 100 mM Tris-HCl pH 7.5, NaCl, 100 µM ZnCl2, 25 °C; 0.6 μM enzyme, 0-0.4 mM patulin

T1 sequence (A0A0A2K035 entry or part of it): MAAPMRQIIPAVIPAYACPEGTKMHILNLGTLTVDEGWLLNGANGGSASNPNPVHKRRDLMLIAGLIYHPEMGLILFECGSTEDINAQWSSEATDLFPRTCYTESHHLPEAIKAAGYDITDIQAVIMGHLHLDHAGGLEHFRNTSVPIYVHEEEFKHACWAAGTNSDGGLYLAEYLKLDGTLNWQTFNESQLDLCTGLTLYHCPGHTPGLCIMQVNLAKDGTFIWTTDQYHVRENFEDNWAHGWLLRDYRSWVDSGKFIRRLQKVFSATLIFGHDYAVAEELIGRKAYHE

O=C1C=C2C(=CCOC2O)O1 (stereo not shown) [patulin]
Km: 377 ± 112 µM
